# Laboratory results from patent US9492437B2, “Otamixaban for treatment of elderly and renal impaired non-ST elevation myocardial infarction patients” (SANOFI, priority 2009, dated 2016).
# Like-named read-outs stand apart in the source and are kept apart here.
# Legend:
# [1] = tested on: patients with Unstable angina/Non ST segment Elevation Myocardial infarction; settings: in vivo
# Method: The following results are based on a randomized, double-blind triple-dummy trial to compare otamixaban to Unfractionated Heparin+eptifibatide, in patients with Unstable angina/Non ST segment Elevation Myocardial infarction scheduled to undergo an early invasive strategy.
# Otamixaban arm: (Bol) 0.080 mg/Kg (I) 0.035 mg/Kg/h or 0.070 mg/Kg/h or 0.105 mg/Kg/h or 0.175 mg/Kg/h
# UFH: 60 IU/Kg as IV bolus ([…]) followed by an IV infusion of 12 U/Kg/h (max 1000 IU/h) to maintain a PTT at 1.5 to 2.0 times control and at the time of the PCI additional boluses needed if the ACT is not in the range of 200-250 seconds. NB: In order for the study to be blinded, all aPTTs and ACTs performed in order to adjust Drug B (UFH/placebo) dosing will be performed using an encrypted Hemochron Signature Elite machine (or as a back-up, a local device with a third-party unblinded healthcare professional).
# Eptifibatide: a single bolus of 180 mcg/kg followed by an infusion of 2 mcg/kg/min. In patients with CrCl<50 mL/min the infusion rate will be decreased to 1 mcg/kg/min.
# Safety: • Non-CABG TIMI significant (Major+Minor) bleeding adjudicated by a blinded Clinical Events Adjudication Committee (CEAC) at Day 7. • Non-CABG TIMI Major bleeding adjudicated by a blinded Clinical Events Adjudication Committee (CEAC) at Day 7. • CABG-related bleeding adjudicated by a blinded Clinical Events Adjudication Committee (CEAC) at Day 7. • TIMI Major Bleeding (Non CABG+CABG) adjudicated by a blinded Clinical Events Adjudication Committee (CEAC) at Day 7. • Adjudicated TIMI Minor bleedings at Day 7 • Adjudicated Thrombotic and non-thrombotic procedural complications during the index PCI (including abrupt or threatened closure, new intracoronary thrombus, side branch closure, distal embolization, noreflow, thrombus in catheter or adherent to guidewire, coronary dissection with decreased flow, difficulty in reaching or crossing lesion, unplanned stent use, suboptimal results, coronary perforation, tamponade). All the above events will be adjudicated by a blinded Independent Adjudication Committee.
# acute coronary syndrome = settings: cited from earlier work
# thrombosis [2] = settings: canine; cited from earlier work
# [3] = biological target: factor Xa assembled in the prothrombinase complex (Factor Xa, Factor Va, calcium and phospholipid) (Homo sapiens, UniProt P00742); settings: cited from earlier work
# factor Xa = biological target: T1, factor Xa (Homo sapiens, UniProt P00742); settings: patients with stable coronary artery disease taking usual comedication, some with mild renal impairment; cited from earlier work
# T1 construct: host or cells: patients (endogenous enzyme)
# free factor Xa = free factor Xa (Homo sapiens, UniProt P00742); settings: cited from earlier work
# thrombosis [4] = settings: rodent; cited from earlier work
# thrombosis [5] = settings: porcine; cited from earlier work
# T1 sequence (P00742 235-488 limits assumed): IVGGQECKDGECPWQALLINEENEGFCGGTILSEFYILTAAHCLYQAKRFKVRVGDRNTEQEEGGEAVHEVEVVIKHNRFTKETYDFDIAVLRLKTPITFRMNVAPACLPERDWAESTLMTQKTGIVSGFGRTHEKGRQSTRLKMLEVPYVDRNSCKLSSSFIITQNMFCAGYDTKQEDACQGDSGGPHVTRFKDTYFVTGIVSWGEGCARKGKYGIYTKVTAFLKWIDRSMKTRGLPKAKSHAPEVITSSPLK
# T1 sequence (P00742 41-179 partner limits assumed): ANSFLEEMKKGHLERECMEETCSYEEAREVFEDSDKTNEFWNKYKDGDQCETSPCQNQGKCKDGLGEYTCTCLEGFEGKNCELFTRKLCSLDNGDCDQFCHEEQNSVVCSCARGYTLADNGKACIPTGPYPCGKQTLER
# free factor Xa, sequence (P00742 235-488 limits assumed): as the sequence (P00742 235-488 limits assumed) above
# free factor Xa, sequence (P00742 41-179 limits assumed): as the sequence (P00742 41-179 partner limits assumed) above
# factor Xa assembled in the prothrombinase complex (Factor Xa, Factor Va, calcium and phospholipid), sequence (P00742 235-488 limits assumed): as the sequence (P00742 235-488 limits assumed) above
# factor Xa assembled in the prothrombinase complex (Factor Xa, Factor Va, calcium and phospholipid), sequence (P00742 41-179 limits assumed): as the sequence (P00742 41-179 partner limits assumed) above
# factor Xa assembled in the prothrombinase complex (Factor Xa, Factor Va, calcium and phospholipid), sequence (P12259 29-737 partner limits assumed): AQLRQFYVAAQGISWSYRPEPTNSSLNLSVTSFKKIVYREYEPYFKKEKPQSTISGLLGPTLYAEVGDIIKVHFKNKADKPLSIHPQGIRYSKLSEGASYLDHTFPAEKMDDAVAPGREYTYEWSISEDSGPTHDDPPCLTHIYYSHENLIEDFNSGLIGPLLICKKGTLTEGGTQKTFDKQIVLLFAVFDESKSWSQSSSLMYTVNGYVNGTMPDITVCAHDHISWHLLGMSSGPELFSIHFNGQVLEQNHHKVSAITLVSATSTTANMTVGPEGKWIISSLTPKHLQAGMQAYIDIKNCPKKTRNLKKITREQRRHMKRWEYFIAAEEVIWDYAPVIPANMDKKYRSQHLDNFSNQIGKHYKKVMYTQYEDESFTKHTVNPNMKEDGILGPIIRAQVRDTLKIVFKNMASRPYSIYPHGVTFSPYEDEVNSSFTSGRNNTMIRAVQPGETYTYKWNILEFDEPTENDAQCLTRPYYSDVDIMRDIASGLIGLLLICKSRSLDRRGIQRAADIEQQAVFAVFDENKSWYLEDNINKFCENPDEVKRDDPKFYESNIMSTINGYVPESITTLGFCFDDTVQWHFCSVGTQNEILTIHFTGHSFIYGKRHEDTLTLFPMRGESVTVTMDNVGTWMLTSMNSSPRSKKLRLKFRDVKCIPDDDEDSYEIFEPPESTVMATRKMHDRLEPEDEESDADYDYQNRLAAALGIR
# factor Xa assembled in the prothrombinase complex (Factor Xa, Factor Va, calcium and phospholipid), sequence (P12259 1574-2224 partner limits assumed): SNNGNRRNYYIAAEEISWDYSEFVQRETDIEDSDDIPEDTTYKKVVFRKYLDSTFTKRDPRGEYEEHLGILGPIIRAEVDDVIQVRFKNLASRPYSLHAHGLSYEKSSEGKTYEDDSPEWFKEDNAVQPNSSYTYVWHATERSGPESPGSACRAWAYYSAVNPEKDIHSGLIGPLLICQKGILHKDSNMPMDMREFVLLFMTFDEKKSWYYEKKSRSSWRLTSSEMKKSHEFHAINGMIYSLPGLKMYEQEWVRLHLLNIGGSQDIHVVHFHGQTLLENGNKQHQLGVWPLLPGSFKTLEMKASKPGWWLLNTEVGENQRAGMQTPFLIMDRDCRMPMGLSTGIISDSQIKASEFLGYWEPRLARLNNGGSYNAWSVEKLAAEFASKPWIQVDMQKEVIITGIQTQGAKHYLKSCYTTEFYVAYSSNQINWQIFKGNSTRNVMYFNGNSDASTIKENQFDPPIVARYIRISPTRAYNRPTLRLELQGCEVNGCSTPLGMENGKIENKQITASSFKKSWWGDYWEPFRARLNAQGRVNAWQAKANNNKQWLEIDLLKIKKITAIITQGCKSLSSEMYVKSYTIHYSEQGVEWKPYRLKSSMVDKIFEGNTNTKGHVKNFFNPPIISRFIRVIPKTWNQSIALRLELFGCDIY
structure (smiles),measurement,setting,value
"COC(=O)C(Cc1cccc(C(=N)N)c1)[C@@H](C)NC(=O)c1ccc(-c2cc[n+]([O-])cc2)cc1 (mixture of isomers) [Otamixaban, (2R,3R)-2-(3-Carbamimidoyl-benzyl)-3-[4-(1-oxy-pyridin-4-yl)benzoylamino]-butyric acid methyl ester]","bleeding rate among subgroups (age, baseline creatinine clearance, body weight)",[1]; human,did not show any increase of the bleeding rate
same,rates of TIMI major as compared to UFH+eptifibatide,[1]; 0.105 mg/kg,numerically higher
same,rates of TIMI minimal as compared to UFH+eptifibatide,[1]; 0.105 mg/kg,numerically higher
same,rates of TIMI minor (for patients without TIMI major) as compared to UFH+eptifibatide,[1]; 0.105 mg/kg,lower
same,TIMI significant bleeding,[1]; 0.175 mg/kg,excessive
same,"efficacy, safety and tolerability in humans",acute coronary syndrome,"efficacious, safe and well tolerated"
same,efficacy in models of thrombosis,thrombosis [2],highly efficacious
same,inhibition of factor Xa assembled in the prothrombinase complex,[3],inhibited
same,factor Xa inhibition in patients,factor Xa,"dose-dependent, rapid direct factor Xa inhibition"
same,inhibition of free factor Xa,free factor Xa,inhibited
same,efficacy in models of thrombosis,thrombosis [4],highly efficacious
same,efficacy in models of thrombosis,thrombosis [5],highly efficacious
